Measurements published in ChEMBL document CHEMBL6120973 (J Med Chem, 2024).
pEC50, pIC50: −log10 of the molar value.

Legend:
[1] = tested on: Human immunodeficiency virus 1; assay: Antiviral activity against wildtype HIV-1 IIIB infected in human MT4 cells assessed as protection against virus-induced cytopathic effect incubated for 5 days by MTT assay; format: functional, organism-based; settings: Human immunodeficiency virus 1, IIIB, MT4, 120 h
[2] = Cytotoxicity against human MT4 cells assessed as reduction in cell viability measured after 5 days by MTT assay
[3] = Metabolic stability in rat liver microsomes assessed as half-life at 0.1 uM preincubated for 10 mins followed by NADPH addition and measured upto 60 mins by LC-MS/MS analysis; format: ADME, Microsome; settings: time < 70 min
[4] = Metabolic stability in dog liver microsomes assessed as half-life at 0.1 uM preincubated for 10 mins followed by NADPH addition and measured upto 60 mins by LC-MS/MS analysis; format: ADME, Canis lupus familiaris, Microsome; settings: time < 70 min
[5] = Metabolic stability in human liver microsomes assessed as half-life at 0.1 uM preincubated for 10 mins followed by NADPH addition and measured upto 60 mins by LC-MS/MS analysis; format: ADME, Microsome; settings: time < 70 min
[6] = tested on: Human immunodeficiency virus 1; assay: Antiviral activity against HIV-1 harboring RT E138K mutant infected in human MT4 cells assessed as protection against virus-induced cytopathic effect incubated for 5 days by MTT assay; format: functional, organism-based; settings: Human immunodeficiency virus 1, MT4, 120 h
[7] = tested on: Human immunodeficiency virus 1; assay: Antiviral activity against HIV-1 harboring RT K103N mutant infected in human MT4 cells assessed as protection against virus-induced cytopathic effect incubated for 5 days by MTT assay; format: functional, organism-based; settings: Human immunodeficiency virus 1, MT4, 120 h
[8] = biological target: Human immunodeficiency virus type 1 reverse transcriptase (Human immunodeficiency virus 1, UniProt Q72547); assay: Inhibition of recombinant wild type HIV-1 Reverse transcriptase incubated for 40 mins by Pico-green reagent based fluorescence analysis
[9] = tested on: Human immunodeficiency virus 1; assay: Antiviral activity against HIV-1 harboring RT Y181C mutant infected in human MT4 cells assessed as protection against virus-induced cytopathic effect incubated for 5 days by MTT assay; format: functional, organism-based; settings: Human immunodeficiency virus 1, MT4, 120 h
[10] = tested on: Human immunodeficiency virus 1; assay: Antiviral activity against HIV-1 harboring RT Y188L mutant infected in human MT4 cells assessed as protection against virus-induced cytopathic effect incubated for 5 days by MTT assay; format: functional, organism-based; settings: Human immunodeficiency virus 1, MT4, 120 h
[11] = tested on: Human immunodeficiency virus 1; assay: Antiviral activity against HIV-1 harboring RT K103N/Y181C double mutant infected in human MT4 cells assessed as protection against virus-induced cytopathic effect incubated for 5 days by MTT assay; format: functional, organism-based; settings: Human immunodeficiency virus 1, MT4, 120 h
[12] = tested on: Human immunodeficiency virus 1; assay: Antiviral activity against HIV-1 harboring RT L100I mutant infected in human MT4 cells assessed as protection against virus-induced cytopathic effect incubated for 5 days by MTT assay; format: functional, organism-based; settings: Human immunodeficiency virus 1, MT4, 120 h
[13] = tested on: Human immunodeficiency virus 1; assay: Antiviral activity against HIV-1 harboring RT F227L/V106A double mutant infected in human MT4 cells assessed as protection against virus-induced cytopathic effect incubated for 5 days by MTT assay; format: functional, organism-based; settings: Human immunodeficiency virus 1, MT4, 120 h
[14] = Solubility of compound in phosphate buffer at pH 7.0 measured after 24 hrs by HPLC analysis; format: physicochemical
[15] = Solubility of compound in Watson's distilled pure water measured after 24 hrs by HPLC analysis; format: physicochemical
[16] = Solubility of compound in phosphate buffer at pH 7.4 measured after 24 hrs by HPLC analysis; format: physicochemical
[17] = Selectivity index, ratio of CC50 for human MT4 cells to EC50 for wild type HIV-1 IIIB infected in human MT4 cellS; settings: MT4 cells
[18] = AUC (0 to infinity) in male Sprague-Dawley rat at 10 mg/kg, po measured after 24 hrs by LC-MS analysis; format: ADME, organism-based; settings: in vivo
[19] = Clearance in male Sprague-Dawley rat at 1 mg/kg, iv measured after 24 hrs by LC-MS analysis; format: ADME, organism-based; settings: in vivo
[20] = Cmax in male Sprague-Dawley rat at 10 mg/kg, po measured after 24 hrs by LC-MS analysis; format: ADME, organism-based; settings: in vivo
[21] = AUC (0 to t) in male Sprague-Dawley rat at 10 mg/kg, po measured after 24 hrs by LC-MS analysis; format: ADME, organism-based; settings: in vivo
[22] = Tmax in male Sprague-Dawley rat at 10 mg/kg, po measured after 24 hrs by LC-MS analysis; format: ADME, organism-based; settings: in vivo
[23] = Oral bioavailability in male Sprague-Dawley rat at 10 mg/kg measured after 24 hrs by LC-MS analysis; format: ADME, organism-based; settings: in vivo
[24] = Half-life in male Sprague-Dawley rat at 10 mg/kg, po measured after 24 hrs by LC-MS analysis; format: ADME, organism-based; settings: in vivo
[25] = Half-life in male Sprague-Dawley rat at 1 mg/kg, iv measured after 24 hrs by LC-MS analysis; format: ADME, organism-based; settings: in vivo
[26] = AUC (0 to infinity) in male Sprague-Dawley rat at 1 mg/kg, iv measured after 24 hrs by LC-MS analysis; format: ADME, organism-based; settings: in vivo
[27] = Tmax in male Sprague-Dawley rat at 1 mg/kg, iv measured after 24 hrs by LC-MS analysis; format: ADME, organism-based; settings: in vivo
[28] = AUC (0 to t) in male Sprague-Dawley rat at 1 mg/kg, iv measured after 24 hrs by LC-MS analysis; format: ADME, organism-based; settings: in vivo
[29] = MRT (0 to infinity) in male Sprague-Dawley rat at 1 mg/kg, iv measured after 24 hrs by LC-MS analysis; format: ADME, organism-based; settings: in vivo
[30] = MRT (0 to t) in male Sprague-Dawley rat at 10 mg/kg, po measured after 24 hrs by LC-MS analysis; format: ADME, organism-based; settings: in vivo
[31] = MRT (0 to t) in male Sprague-Dawley rat at 1 mg/kg, iv measured after 24 hrs by LC-MS analysis; format: ADME, organism-based; settings: in vivo
[32] = Solubility of compound in phosphate buffer at pH 2.0 measured after 24 hrs by HPLC analysis; format: physicochemical
[33] = Cmax in male Sprague-Dawley rat at 1 mg/kg, iv measured after 24 hrs by LC-MS analysis; format: ADME, organism-based; settings: in vivo
[34] = MRT (0 to infinity) in male Sprague-Dawley rat at 10 mg/kg, po measured after 24 hrs by LC-MS analysis; format: ADME, organism-based; settings: in vivo

Work on `Cc1cc(/C=C/C#N)cc(C)c1Nc1ccnc(Nc2ccc(C#N)cc2)n1` [RILPIVIRINE] yielded a pEC50 [1] of 8.40, a CC50 at 120 h ([2]; MT4 cells) of over 6.35 µM and a half-life at 0.1 µM [3] of 7.29 min. The half-life at 0.1 µM [4] was 79.3 min and the half-life at 0.1 µM [5] was 16 min.

`N#Cc1ccc(Nc2nccc(Nc3c(F)cc(-c4ccncc4)cc3F)n2)cc1` gave a pEC50 [1] of 8.70, a CC50 at 120 h ([2]; mt4) of 6 µM and a pEC50 [6] of 8.00. The pEC50 [7] was 8.70, the half-life at 0.1 µM [3] was 13 min and the pIC50 [8] was 7.51. The pEC50 [9] was 8.22, the pEC50 [10] was 7.24 and the pEC50 [11] was 7.19. The half-life at 0.1 µM [5] was 9.6 min, the pEC50 [12] was 8.40 and the pEC50 [13] was 6.52.

For `Cc1cc(C#N)cc(C)c1Oc1nc(Nc2ccc(C#N)cc2)nc(N)c1Br` [ETRAVIRINE], the solubility at 24 h [14] was under 1 µg/mL, the CC50 at 120 h ([2]; MT4 cells) was over 4.61 µM and the half-life at 0.1 µM [3] was 13.5 min. It also gave a half-life at 0.1 µM [4] of 152 min, a pEC50 [9] of 7.89 and a pEC50 [10] of 7.77. It also gave a solubility at 24 h [15] of under 1 µg/mL, a pEC50 [11] of 7.37 and a half-life at 0.1 µM [5] of 64.1 min. The pEC50 [12] was 8.40, the pEC50 [13] was 7.92 and the solubility at 24 h [16] was under 1 µg/mL.

Work on `Cc1cc(-c2ccncc2)cc(C)c1Nc1nc(Nc2ccc(C#N)cc2)ncc1-c1cncc(N)c1` yielded a pEC50 [1] of 8.22, a CC50 at 120 h ([2]; MT4 cells) of 6.38 µM and a pEC50 [6] of 7.89. For the same compound, the pEC50 [7] was 8.15, the selectivity ratio [17] was 1050 and the pIC50 [8] was 7.14. It also gave a pEC50 [9] of 7.29, a pEC50 [10] of 7.20 and a pEC50 [11] of 6.42. For the same compound, the pEC50 [12] was 7.54 and the pEC50 [13] was 6.49.

Compound `Cc1cc(-c2ccncc2)cc(C)c1Nc1nc(Nc2ccc(C#N)cc2)ncc1-c1ccncc1` has a pEC50 [1] of 7.85, a CC50 at 120 h ([2]; MT4 cells) of over 266 µM and a pEC50 [6] of 7.39. It also gave a pEC50 [7] of 7.64, a selectivity ratio [17] of over 19100 and a pIC50 [8] of 7.23. It also gave a pEC50 [9] of 6.86, a pEC50 [10] of 6.74 and a pEC50 [11] of 5.93. It also gave a pEC50 [12] of 7.04 and a pEC50 [13] of 5.70.

For `Cc1cc(-c2ccncc2)cc(C)c1Nc1nc(Nc2ccc(C#N)cc2)ncc1-c1cn[nH]c1.Cl`, the AUC(0-inf) [18] was 3470 ng·h/mL, the clearance [19] was 30.3 mL/min/kg and the Cmax [20] was 862 ng/mL. The solubility at 24 h [14] was under 1 µg/mL, the AUC(0-t) at 24 h [21] was 3460 ng·h/mL and the Tmax [22] was 1 h. It also gave a bioavailability [23] of 57.4%, a half-life [24] of 175 min and a half-life [25] of 50.4 min. The AUC(0-inf) [26] was 605 ng·h/mL, the Tmax [27] was 4.8 min and the AUC(0-t) at 24 h [28] was 600 ng·h/mL. For the same compound, the solubility at 24 h [15] was 366 µg/mL, the MRT inf [29] was 1.14 h and the MRT last at 24 h [30] was 3.04 h. For the same compound, the MRT last at 24 h [31] was 1.1 h, the solubility at 24 h [32] was 782 µg/mL and the solubility at 24 h [16] was under 1 µg/mL. For the same compound, the Cmax [33] was 572 ng/mL and the MRT inf [34] was 3.14 h.
